“Also recorded” adds a separate entry of the source. Read-outs that look alike come from different tables or passages of the source. Ends that are not written are not given here. Peptide text beside a SMILES is read from it.
Tests used:
[1] = system: Escherichia coli, ATCC 25922
Description: The antibacterial activity against two strains of bacteria of a previously published cHABP1 peptide,^65,66 an antimicrobial peptide designed through artificial intelligence methods (HHC-36),^67 and a chimeric peptide cHABP1-GGG-HHC36 to functionalize calcium phosphate surfaces with antibacterial activity.

S. mutans (ATCC 25175) [2] = conditions: in solution; previously published values; cited from earlier work
[3] = system: S. epidermidis (ATCC 29886); conditions: in solution; previously published values; cited from earlier work
S. mutans (ATCC 25175) [4] = experiment: MIC in solution, OD600 over 24 h; assay type: cell-based; parameters: key to Growth: Entries with a “+” indicate bacterial growth did occur at that concentration of TiBP-Spacer5-AMP; entries with a “−” indicate inhibition of bacterial growth; conditions: for Growth: S. mutans
Procedure: (§1) The antimicrobial activity of TiBP-Spacer5-AMP was evaluated against two bacterial strains, S. mutans (American Type Culture Collection (ATCC) 25175, Manassas, Va.) and S. epidermidis (ATCC 29886). S. mutans cultures were prepared using Brain Heart Infusion Broth (BHI, BD Difco, Franklin Lakes, N.J.) and S. epidermidis using Nutrient Broth (NB, BD Difco) according to ATCC protocols. Bacterial pellets obtained from ATCC were rehydrated in appropriate media of which several drops were used to streak either BHI or NB agar plates. Bacteria streaked agar plates were subsequently incubated for 24 h. Agar plates and cultures were incubated at 37° C. in the presence of 5% CO2-supplemented atmosphere for S. mutans and in aerobic atmosphere and 200 rpm shaking for S. epidermidis. Overnight cultures were made by aseptically transferring a single-colony forming unit (CFU) into 10 mL of appropriate broth media followed by incubation in appropriate conditions for 16 h. Bacteria from overnight cultures were used to inoculate fresh media and grown to mid-log phase.
(§2) The MIC of TiBP-Spacer5-AMP against S. mutans and S. epidermidis in solution was evaluated in 96 well plates (Corning Costar 3370, Corning, N.Y.) spectrophotometrically over a period of 24 h by obtaining a measurement for the optical density at 600 nm (OD600) every two hours. Optical density at 600 nm was measured using a Cytation3 microplate reader (Bio Tek Instruments, Winooski, Vt.). Bacteria grown to mid-log phase at a density of 10^7 CFU/mL were cultured at appropriate growth conditions in appropriate broth media only as a control or in broth media containing a range from 5-70 μM of TiBP-Spacer5-AMP for S. mutans and 1-10 μM for S. epidermidis. The OD600 measurements obtained, relating optical density to bacteria CFUs/mL, were plotted versus time to generate standard growth curves. The minimum concentration of TiBP-Spacer5-AMP at which no increase in optical density measurement, corresponding to no bacterial growth occurring was designated as the MIC. AlamarBlue assay (Invitrogen, Carlsbad, Calif.) was used for determination of a minimum bactericidal concentration of TiBP-Spacer5-AMP. Bacteria in broth media only and with the TiBPSpacer5-AMP concentrations described in the MIC experiments were prepared in 96 well plates. AlamarBlue reagent was added to experimental wells and incubated for two hours at 37° C. Experimental wells were observed and evaluated for color change. Wells corresponding to concentrations of TiBP-Spacer5-AMP where no color change occurred were determined to have bactericidal concentrations of the chimeric peptide.

[5] = system: S. epidermidis (ATCC 29886); experiment: MIC in solution, OD600 over 24 h; assay type: cell-based; parameters: key to Growth: Entries with a “+” indicate bacterial growth did occur at that concentration of TiBP-Spacer5-AMP; entries with a “−” indicate inhibition of bacterial growth; conditions: for Growth: S. epidermidis
Procedure: as §1, §2

S. epidermidis = experiment: Antimicrobial activity on bio-coated titanium substrates, fluorescence imaging and ImageJ; assay type: cell-based
Description: Two surfaces, 99% pure titanium foil (Alfa Aesar 43677, Ward Hill, Mass.) and titanium implant discs cut from standard rods used in posterior lumbar surgery (University of Kansas Medical Center Department of Neurosurgery, Kansas City, Kans.) were used for evaluation of TiBP-Spacer5-AMP biocoating antimicrobial activity. Titanium foils were cut into squares measuring 0.5 mm thick×1 cm×1 cm and 6 mm diameter implant rods were cut by the University of Kansas Medical Center Department of Neurosurgery with a standard orthopedic surgical rod cutter into 3 mm long disc segments. […]
Antimicrobial activity of TiBP-Spacer5-AMP biocoated titanium surfaces against each bacterial strain was evaluated by culturing bacteria in 24 well plates containing bio-coated surfaces or bare, untreated control surfaces. […] Stained bacteria were imaged with a fluorescence microscope (Olympus Spin Disk Epifluorescent microscope, Richmond Hill, Ontario, Canada) at an excitation/emission wave number provided by the manufacturer. Five representative fluorescence images were taken for each sample (n=3) and the bacteria were quantified using ImageJ Software and then subjected to statistical analysis.

NIH/3T3 fibroblast = experiment: Host cell attachment and spreading on coated titanium surfaces; assay type: cell-based; conditions: 60 μM bio-coating
Procedure: Host cell response was evaluated with a fibroblast cell line (NIH/3T3 ATCC CRL-1658). The fibroblast cells were cultured following the ATCC protocol. Briefly, cells were grown in DMEM media (Gibco 11995073, Carlsbad, Calif.) supplemented with 10% fetal bovine serum (Gibco 10437036) and 1% penicillin-streptomycin (Gibco 15070063) and incubated at 37° C. in a 5% CO2 atmosphere. Fibroblasts were passaged using 0.25% TrypsinEDTA (Gibco 25200072) and cells were counted to ensure correct seeding concentrations. Fibroblast cell response to 60 μM TiBP-Spacer5AMP bio-coating, 200 μg/mL collagen (Sigma C7661, St. Louis, Mo.) coating (positive control) and bare, untreated (negative control) titanium foil and implant surfaces was studied. Fibroblast cells at a concentration of 8×10^5 cells/mL were added to sterile 24 well plates containing TiBP-Spacer5-AMP coated, collagen coated, or bare, untreated foils or implants and incubated for 24 h at 37° C. in a 5% CO2 atmosphere. Fibroblast attachment and spreading were evaluated by fixing fibroblasts on titanium surfaces with 2% glutaraldehyde solution, followed by dehydration in 10%, 30%, 60%, 90% and 100% ethanol. Fixed fibroblasts on titanium surfaces were washed twice with PBS, permeabilized with TritonX (Sigma T8787), sealed with BSA (Fisher BioReagents BP671-10, Carlsbad, Calif.), and stained with Alexa Fluor488-Phalloidin dye (Invitrogen). Unbound dye was removed by washing with PBS and substrates were imaged with a fluorescent microscope at 4, 10 and 20 times magnification. Five representative images of each surface (n=3) were obtained and analyzed with ImageJ Software and then subjected to statistical analysis. Cell attachment was determined as number of cells per square millimeter and the percentage of the image surface covered by attached cells. Another measure of viability, metabolic activity was determined using a MTT (3-(4,5-dimethylthiazol-2-yl)-25-diphenyltetrazolium bromide) assay (Sigma M5655). […] Absorbance was measured at 570 nm.

S. mutans (ATCC 25175) [6] = experiment: AlamarBlue assay, minimum bactericidal concentration; assay type: cell-based
Procedure: as §1
(§3) The MIC of TiBP-Spacer5-AMP against S. mutans and S. epidermidis in solution was evaluated in 96 well plates (Corning Costar 3370, Corning, N.Y.) spectrophotometrically over a period of 24 h by obtaining a measurement for the optical density at 600 nm (OD600) every two hours. […]

[7] = system: S. epidermidis (ATCC 29886); experiment: as above; assay type: cell-based
Procedure: as §1, §3

CSCC[C@H](NC(=O)[C@@H](N)CS)C(=O)N[C@@H](CC(C)C)C(=O)N1CCC[C@H]1C(=O)N[C@@H](Cc1c[nH]cn1)C(=O)N[C@@H](Cc1c[nH]cn1)C(=O)NCC(=O)N[C@@H](C)C(=O)N[C@@H](CS)C(=O)O [cHABP1, CMLPHHGAC (SEQ ID NO: 36)] (H-CMLPHHGAC-OH; N-terminus and C-terminus assumed)
antibacterial activity by absorbance at 600 nm (FIG. 11) (S. mutans; S. mutans): some antibacterial activity in the higher tested concentrations
antibacterial activity by absorbance at 600 nm (FIG. 11) ([1]; E. coli): some antibacterial activity in the higher tested concentrations

KRWWKWWRR [HHC-36, KRWWKWWRR (SEQ ID NO: 37)]
S. mutans IC50 (S. mutans): 3 µg/mL
MIC value (S. mutans; S. mutans): 10.8 µM
E. coli IC50 [1]: 12 µg/mL
MIC estimate ([1]; Escherichia coli, ATCC 25922): 21.5 µM

LKLLKKLLKLLKKL (SEQ ID NO: 8) [AMP, antimicrobial peptide]
Minimum Inhibitory Concentration (MIC) S. mutans (S. mutans (ATCC 25175) [2]): 38 µM
Minimum Inhibitory Concentration (MIC) S. epidermidis [3]: 4 µM

RPRENRGRERGL-GGG-LKLLKKLLKLLKKL (SEQ ID NO: 9) (RPRENRGRERGLGGGLKLLKKLLKLLKKL) [TiBP-Spacer3-AMP, comparative chimeric peptide with shorter spacer]
Minimum Inhibitory Concentration (MIC) S. mutans (S. mutans (ATCC 25175) [2]): 153 µM
Minimum Inhibitory Concentration (MIC) S. epidermidis [3]: 5 µM

RPRENRGRERGLGSGGGLKLLKKLLKLLKKL [TiBP-Spacer5-AMP, RPRENRGRERGL-GSGGG-LKLLKKLLKLLKKL (SEQ ID NO: 10)]
Growth (S. mutans (ATCC 25175) [4]; 5 μM): +
Growth (S. mutans (ATCC 25175) [4]; 10 μM): +
Growth (S. mutans (ATCC 25175) [4]; 20 μM): +
Growth (S. mutans (ATCC 25175) [4]; 30 μM): +
Growth (S. mutans (ATCC 25175) [4]; 40 μM): +
Growth (S. mutans (ATCC 25175) [4]; 50 μM): −
Growth (S. mutans (ATCC 25175) [4]; 60 μM): −
Growth (S. mutans (ATCC 25175) [4]; 70 μM): −
improvement (decrease) of MIC against S. mutans (S. mutans (ATCC 25175) [4]; compared to TiBP-Spacer3-AMP): three-fold
Minimum Inhibitory Concentration (MIC) S. mutans (S. mutans (ATCC 25175) [4]; in solution): 50 µM
Growth ([5]; 1 μM): +
Growth ([5]; 2 μM): +
Growth ([5]; 3 μM): +
Growth ([5]; 4 μM): +
Growth ([5]; 5 μM): +
Growth ([5]; 6 μM): +
Growth ([5]; 7 μM): +
Growth ([5]; 8 μM): −
Minimum Inhibitory Concentration (MIC) S. epidermidis ([5]; in solution): 8 µM
Fold Improvement Compared to Uncoated Ti Surfaces, Implants (S. epidermidis; implant discs coated at 10 μM): 48 fold
Fold Improvement Compared to Uncoated Ti Surfaces, Foils (S. epidermidis; titanium foil coated at 10 μM): 33 fold
fibroblast surface coverage (spreading) (NIH/3T3 fibroblast; titanium foils, compared to untreated control): greater coverage
adhesion and spreading (NIH/3T3 fibroblast; titanium implants, compared to collagen positive control): statistically comparable to the positive collagen controls
cell attachment and spreading (NIH/3T3 fibroblast; titanium implants, compared to untreated control): greater cell attachment and spreading compared to untreated controls; also recorded: statistically greater cell attachment and spreading properties
bactericidal concentration (S. mutans (ATCC 25175) [6]): 60 µM
bactericidal concentration [7]: 10 µM
